Read-outs that look alike come from different tables or passages of the source.
How the values were obtained:
[1] = target: picrotoxin binding site on GABAA receptors; conditions: for IC50: duplicate experiments in triplicate, ± SEM, read-out: IC50, inhibition of [35S]-TBPS binding
[2] = target: rat α1β2γ2L type GABAA receptors (Rattus norvegicus (Rat), UniProt P62813+P63138, INS375LLRMFSFK); test: Oocyte electrophysiology: potentiation of 2 μM GABA chloride currents and direct gating, Xenopus laevis oocytes; type: cell-based; conditions: for ratio of currents measured in the presence/absence of added compound, 0.1 μM: 0.1 μM compound; for ratio of currents measured in the presence/absence of added compound, 0.1 μM / ratio of currents measured in the presence/absence of added compound, 1 μM / (gating) 10 μM: ratio of compound only current/2 μM GABA current / ratio of currents measured in the presence/absence of added compound, 10 μM: ± SEM; for ratio of currents measured in the presence/absence of added compound, 0.1 μM / ratio of currents measured in the presence/absence of added compound, 1 μM / ratio of currents measured in the presence/absence of added compound, 10 μM: N ≥ 4; for ratio of currents measured in the presence/absence of added compound, 1 μM: 1 μM compound; for (gating) 10 μM: ratio of compound only current/2 μM GABA current: 10 μM compound in the absence of GABA; for ratio of currents measured in the presence/absence of added compound, 10 μM: 10 μM compound
Source text: The measured concentration of GABA, on average, gates about 4% of the maximum response of a cell. However, the sensitivity to GABA of the receptors, which determines the degree of steroid potentiation that can be measured, varied from one batch of oocytes to another.

[3] = test system: tadpole; test: Tadpole loss of righting reflex (LRR) and loss of swimming reflex (LSR); type: in vivo
[4] = test system: BALB/C mice; test: Anesthesia in mice, tail vein injection (loss of righting reflex); type: in vivo
Procedure: Anesthetic evaluations were performed in 7-8 week-old BALB/C mice, weighing approximately 20 g. Steroids were dissolved in 22.5% (w/v) 2-hydroxypropyl-β-cyclodextrin solution (Sigma-Aldrich) at a concentration of 1.6 mg/ml or 3.2 mg/ml and injected through the tail vein in volumes of 5 μl/g body weight. Doses (8 or 16 mg/kg) were calculated according to body weight. Animals were placed prone as soon as they stopped moving. Loss of LRR was defined as inability of mice to right themselves within 5 seconds after being placed in a prone position. […] Animals were placed on a warming blanket during the time that they were anesthetized. Each dose was administered to three or four mice and the results are presented as mean±standard error of the mean.

[5] = loss of righting reflex, ± SEM, read-out: Tadpole LRR EC50
[6] = loss of swimming reflex, None = all animals had a swimming response at 10 μM, read-out: Tadpole LSR EC50
[7] = loss of swimming reflex, None = all animals had a swimming response at 10 μM

| Compound | IC50 [1] [nM] | ratio of currents measured in the presence/absence of added compound, 0.1 μM ([2]; 2 μM GABA) | ratio of currents measured in the presence/absence of added compound, 1 μM ([2]; 2 μM GABA) | (gating) 10 μM: ratio of compound only current/2 μM GABA current [2] | ratio of currents measured in the presence/absence of added compound, 10 μM ([2]; 2 μM GABA) | EC50 [3, 5] [nM] | EC50 [3, 6] [nM] | further results |
| --- | --- | --- | --- | --- | --- | --- | --- | --- |
| CO[C@H]1C[C@]2(C)/C(=C/C#N)CC[C@H]2[C@@H]2CC[C@H]3C[C@H](O)CC[C@]3(C)[C@H]21 [Compound 17b, [3α,5α,11β,17(20)E]-3-Hydroxy-11-methoxypregn-17(20)-en-21-nitrile] | 605 ± 139 | 0.99 ± 0.02 | 1.07 ± 0.03 | 0.01 ± 0 | 3.68 ± 0.17 | 1190 ± 490 | 3170 ± 10 | – |
| C[C@]12CC[C@@H](O)C[C@H]1CC[C@@H]1[C@@H]2C(=O)C[C@]2(C)/C(=C\C#N)CC[C@@H]12 [Compound 13a, [3α,5β,17(20)Z]-3-Hydroxy-11-oxo-pregn-17(20)-ene-21-nitrile] | – | – | – | – | – | > 10000 | – | Tadpole LSR EC50 [3, 7]: None |
| C[C@]12CC[C@@H](O)C[C@H]1CC[C@@H]1[C@@H]2CC[C@]2(C)/C(=C/C#N)CC[C@@H]12 [Compound 15b, [(3α,5β,17(20)E]-3-Hydroxypregn-17(20)-ene-21-nitrile] | 1200 | 0.94 ± 0.02 | 1.24 ± 0.04 | 0.01 ± 0.01 | 4.83 ± 0.44 | 1210 ± 350 | 5480 ± 200 | – |
| CO[C@H]1C[C@@]2(C)[C@@H](CC[C@@H]3[C@@H]2CC[C@]2(C)/C(=C\C#N)CC[C@@H]32)C[C@@H]1O [Compound 16a, [2β,3α,5α,17(20)Z]-3-Hydroxy-2-methoxyandrost-17(20)-ene-21-nitrile] | 28 ± 2 | 2.14 ± 0.33 | 12.02 ± 2.54 | 0.40 ± 0.12 | 18.77 ± 5.16 | 29 ± 6 | 110 ± 1 | – |
| [3α,5α,17(20)E]-3-(Acetyloxy)-11-oxopregn-17(20)-ene-20-carbonitrile [Compound 6d] | – | – | – | – | – | 2090 ± 120 | > 10000 | – |
| C[C@]12CC[C@@H](O)C[C@@H]1CC[C@H]1[C@@H]3CC[C@H](C=O)[C@@]3(C)CC(=O)[C@@H]12 [Compound 5b, (3α,5α,17β)-3-Hydroxy-11-oxoandrostane-17-carboxaldehyde] | – | – | – | – | – | 3980 ± 2430 | – | – |
| CO[C@H]1C[C@@]2(C)[C@@H](CC[C@@H]3[C@@H]2CC[C@]2(C)/C(=C/C#N)CC[C@@H]32)C[C@@H]1O [Compound 16b, [2β,3α,5α,17(20)E]-3-Hydroxy-2-methoxyandrost-17(20)-ene-21-nitrile] | 544 ± 87 | 0.95 ± 0.15 | 1.34 ± 0.07 | 0.03 ± 0.14 | 4.81 ± 0.36 | 290 ± 50 | 2970 | – |
| C/C(C#N)=C1\CC[C@H]2[C@@H]3CC[C@H]4C[C@H](O)CC[C@]4(C)[C@H]3C(=O)C[C@]12C [Compound 6c, [3α,5α,17(20)Z]-3-Hydroxy-11-oxopregn-17(20)-ene-20-carbonitrile] | – | – | – | – | – | 2710 ± 260 | 5480 ± 200 | – |
| C[C@]12CC[C@@H](O)C[C@@H]1CC[C@@H]1[C@@H]2C(=O)C[C@]2(C)/C(=C/C#N)CC[C@@H]12 [Compound 6b, [3α,5α,17(20)E]-3-Hydroxy-11-oxopregn-17(20)-ene-2′-nitrile] | – | – | – | – | – | 9150 ± 5370 | 17300 ± 170 | – |
| C[C@]12CC[C@@H](O)C[C@@H]1CC[C@@H]1[C@@H]2C(=O)C[C@]2(C)/C(=C\C#N)CC[C@@H]12 [Compound 6a, [3α,5α,17(20)Z]-3-Hydroxy-11-oxopregn-17(20)-ene-2′-nitrile] | – | – | – | – | – | – | 5480 ± 200 | potentiation of GABA-mediated currents ([2]; 2 μM GABA, 0.1-10 μM compound): strongly enhanced GABA-mediated currents; duration of anesthesia (loss of righting reflex) ([4]; 8 mg/kg): about 1.5 min; time to loss of movement and righting reflex ([4]; 8 mg/kg): 10 to 25 s; duration of anesthesia (loss of righting reflex) ([4]; 16 mg/kg): about 4 min; onset of loss of righting reflex ([4]; 16 mg/kg): immediate |
| CO[C@H]1C[C@]2(C)/C(=C\C#N)CC[C@H]2[C@@H]2CC[C@H]3C[C@H](O)CC[C@]3(C)[C@H]21 [Compound 17a, [3α,5α,11β,17(20)Z]-3-Hydroxy-11-methoxypregn-17(20)-ene-21-nitrile] | 53 ± 7 | 2.14 ± 0.28 | 10.28 ± 2.62 | 0.06 ± 0.07 | 11.20 ± 3.28 | 67 ± 3 | 173 ± 3 | – |
| C[C@]12CC[C@@H](O)C[C@H]1CC[C@@H]1[C@@H]2C(=O)C[C@]2(C)/C(=C/C#N)CC[C@@H]12 [Compound 13b, [3α,5β,17(20)E]-3-Hydroxy-11-oxo-pregn-17(20)-ene-21-nitrile] | – | – | – | – | – | > 10000 | – | Tadpole LSR EC50 [3, 7]: None |
| C[C@]12CC[C@@H](O)C[C@@H]1CC[C@@H]1[C@@H]2C(=O)C[C@]2(C)C(C=O)=CC[C@@H]12 [Compound 5a, (3α,5α)-3-Hydroxy-11-oxoandrost-16-ene-17-carboxaldehyde] | – | – | – | – | – | 3220 ± 30 | – | – |
| C[C@]12CC[C@@H](O)C[C@@H]1CC[C@@H]1[C@@H]2CC[C@]2(C)/C(=C/C#N)CC[C@@H]12 [Compound 14b, [3α,5α,17(20)E]-3-Hydroxypregn-17(20)-ene-21-nitrile] | 501 ± 39 | 0.76 ± 0.05 | 1.30 ± 0.07 | −0.14 ± 0.13 | 3.15 ± 0.38 | 1210 ± 410 | > 10000 | – |
| C[C@]12CC[C@@H](O)C[C@H]1CC[C@@H]1[C@@H]2CC[C@]2(C)/C(=C\C#N)CC[C@@H]12 [Compound 15a, [3α,5β,17(20)Z]-3-Hydroxypregn-17(20)-ene-21-nitrile] | 56 ± 10 | 1.32 ± 0.03 | 5.00 ± 0.30 | 0.03 ± 0.02 | 6.82 ± 0.68 | 472 ± 46 | 1000 | – |
| CC(=O)[C@H]1CC[C@H]2[C@@H]3CC[C@H]4C[C@H](O)CC[C@]4(C)[C@H]3C(=O)C[C@]12C [Compound 1, alphaxalone, reference compound] | – | – | – | – | – | – | – | duration of anesthesia (loss of righting reflex) ([4]; 16 mg/kg): about 4 min; recovery period from initial return of leg movement to righting and walking ([4]; 16 mg/kg): 1 to 2 min |
| C[C@]12CC[C@@H](O)C[C@@H]1CC[C@@H]1[C@@H]2CC[C@]2(C)/C(=C\C#N)CC[C@@H]12 [Compound 14a, [3α,5α,17(20)Z]-3-Hydroxypregn-17(20)-ene-21-nitrile] | 25 ± 3 | 2.18 ± 0.19 | 3.28 ± 0.37 | 0.29 ± 0.32 | 3.98 ± 0.25 | – | – | fold stronger [35S]-TBPS displacement than 17a ([1]; relative to C-11 MeO (17a)): about 2 fold; fold stronger [35S]-TBPS displacement than 6a ([1]; relative to C-11 carbonyl (6a)): about 5 fold; anesthetic activity in tadpoles ([3]; LRR and LSR): lack of anesthetic activity; Tadpole LRR EC50 ([3]; loss of righting reflex, ± SEM): None; Tadpole LSR EC50 [3, 7]: None |
